Assays:
[1] = target: T1, P-type amylase (Calibzyme P) (Homo sapiens, UniProt P04746); assay: amylase isozyme activity assay with potassium thiocyanate as activator, P-type amylase sample; type: biochemical; settings: for Change in absorbance, Containing Antibody (Composition A) / Change in absorbance, Without antibody (Composition B) / Relative sensitivity / Percent residual enzyme activity: P-type amylase; for Relative sensitivity: G3CNP at 900 mM = 100; for Percent residual enzyme activity: composition A/B
T1 construct: purchased International Reagents Corporation Calibzyme P
T1 sequence (P04746 16-511): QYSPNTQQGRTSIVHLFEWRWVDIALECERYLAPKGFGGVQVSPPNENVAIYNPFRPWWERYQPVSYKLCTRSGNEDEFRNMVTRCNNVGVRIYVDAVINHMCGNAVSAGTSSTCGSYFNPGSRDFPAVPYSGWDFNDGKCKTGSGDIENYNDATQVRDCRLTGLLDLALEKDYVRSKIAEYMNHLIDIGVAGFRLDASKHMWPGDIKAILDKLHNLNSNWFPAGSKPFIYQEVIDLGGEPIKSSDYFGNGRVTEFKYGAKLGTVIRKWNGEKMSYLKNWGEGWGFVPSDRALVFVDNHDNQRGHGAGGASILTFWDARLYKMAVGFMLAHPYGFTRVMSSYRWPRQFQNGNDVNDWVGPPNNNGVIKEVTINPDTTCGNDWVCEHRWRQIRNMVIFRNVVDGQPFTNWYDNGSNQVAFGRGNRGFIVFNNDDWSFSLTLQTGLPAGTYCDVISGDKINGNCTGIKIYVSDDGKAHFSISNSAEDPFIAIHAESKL
Description: A reagent for amylase isozyme activity assay comprising each composition as mentioned below was prepared. In the Table showing the composition, GalG2CNP (Example) is 2-chloro-4-nitrophenyl 4-O-β-D-galactopyranosylmaltoside, and G3CNP (Comparative Example) is 2-chloro-4-nitrophenylmaltotrioside.
S-type amylase-inhibiting antibody 88E8 (manufactured by Roche Diagnostics K.K.) 20 mg/L
S-type amylase-inhibiting antibody 66C7 (manufactured by Roche Diagnostics K.K.) 5 mg/L
(§1) Substrate (GalG2CNP (Example) or G3CNP (Comparative Example)) 2.6 mM
(2) P-type Amylase (Calibzyme P, Manufactured by International Reagents Corporation)
Each sample (0.05 mL was added to the reagent A (3 mL) and the reagent B (3 mL), respectively, and the mixtures were allowed to stand at 37° C. for 3 minutes. Then, the change in absorbance at 405 nm was assayed, and the change in absorbance per minute was calculated. The results are shown in Tables 1 and 2.
In the Tables, P is the case where P-type amylase was used as the sample, and S is the case where S-type amylase was used.
Percent residual enzyme activity (%)=(change in absorbance of composition A)/(change in absorbance of composition B)×100
Relative sensitivity (%)=(change in absorbance of composition B)/(change in absorbance of Comparative Example wherein potassium thiocyanate was 900 mM)×100

S-type amylase = target: T2, S-type amylase (Homo sapiens, UniProt P0DUB6); assay: S-type amylase activity assay of serum by subtraction (reagent F minus reagent G); type: biochemical; settings: for S-type amylase activity value: change in absorbance with reagent F minus reagent G
T2 construct: Serum (1, 2 or 3); from tissue; host or cells: serum
T2 sequence (P0DUB6 16-511): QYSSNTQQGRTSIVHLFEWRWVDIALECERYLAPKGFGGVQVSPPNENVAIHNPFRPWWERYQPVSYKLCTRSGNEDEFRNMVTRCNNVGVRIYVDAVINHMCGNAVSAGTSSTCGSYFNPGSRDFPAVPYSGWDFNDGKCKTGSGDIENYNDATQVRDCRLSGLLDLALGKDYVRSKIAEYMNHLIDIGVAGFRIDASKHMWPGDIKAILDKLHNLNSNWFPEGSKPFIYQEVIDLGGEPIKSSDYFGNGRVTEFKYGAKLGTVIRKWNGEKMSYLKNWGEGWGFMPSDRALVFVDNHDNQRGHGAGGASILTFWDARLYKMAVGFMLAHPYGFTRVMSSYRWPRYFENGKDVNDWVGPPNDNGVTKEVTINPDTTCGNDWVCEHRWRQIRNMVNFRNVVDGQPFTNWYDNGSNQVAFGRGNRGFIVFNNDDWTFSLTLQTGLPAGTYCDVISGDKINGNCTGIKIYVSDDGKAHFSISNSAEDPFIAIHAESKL
Description: Potassium thiocyanate 140 mM
as §1
S-type amylase inhibitory antibody 88E8 (manufactured by Roche Diagnostics K.K.) 15 mg/L
S-type amylase inhibitory antibody 66C7 (manufactured by Roche Diagnostics K.K.) 1.25 mg/L
(1) Distilled Water(Blank)
Each of the above-mentioned reagents (0.05 mL) was added to the above reagent F (3 mL) and the mixtures were left standing at 37° C. for 3 minutes. Then, change in absorbance at 405 nm was assayed and change in absorbance per minute was calculated (change in absorbance a). The same procedure was repeated using reagent G and change in absorbance per minute was calculated (change in absorbance b). Then, change in absorbance b was subtracted from change in absorbance a to give change in absorbance c, which was converted to S-type amylase activity value at this composition using the molecular extinction coefficient of CNP.

O=[N+]([O-])c1ccc(O[C@H]2O[C@H](CO)[C@@H](O[C@H]3O[C@H](CO)[C@@H](O[C@@H]4O[C@H](CO)[C@H](O)[C@H](O)[C@H]4O)[C@H](O)[C@H]3O)[C@H](O)[C@H]2O)c(Cl)c1 [GalG2CNP, 2-chloro-4-nitrophenyl 4-O-β-D-galactopyranosylmaltoside]
Change in absorbance, Containing Antibody (Composition A) ([1]; potassium thiocyanate 0 mM): 26.2 mABS/min
Change in absorbance, Without antibody (Composition B) ([1]; potassium thiocyanate 0 mM): 26.7 mABS/min
Relative sensitivity ([1]; potassium thiocyanate 0 mM): 55.7%
Percent residual enzyme activity ([1]; potassium thiocyanate 0 mM): 98.1%
Change in absorbance, Containing Antibody (Composition A) ([1]; potassium thiocyanate 50 mM): 40.6 mABS/min
Change in absorbance, Without antibody (Composition B) ([1]; potassium thiocyanate 50 mM): 42.1 mABS/min
Relative sensitivity ([1]; potassium thiocyanate 50 mM): 87.9%
Percent residual enzyme activity ([1]; potassium thiocyanate 50 mM): 96.4%
Change in absorbance, Containing Antibody (Composition A) ([1]; potassium thiocyanate 100 mM): 49.3 mABS/min
Change in absorbance, Without antibody (Composition B) ([1]; potassium thiocyanate 100 mM): 51.1 mABS/min
Relative sensitivity ([1]; potassium thiocyanate 100 mM): 106.7%
Percent residual enzyme activity ([1]; potassium thiocyanate 100 mM): 96.5%
Change in absorbance, Containing Antibody (Composition A) ([1]; potassium thiocyanate 140 mM): 52.4 mABS/min
Change in absorbance, Without antibody (Composition B) ([1]; potassium thiocyanate 140 mM): 56.0 mABS/min
Relative sensitivity ([1]; potassium thiocyanate 140 mM): 116.9%
Percent residual enzyme activity ([1]; potassium thiocyanate 140 mM): 93.6%
Change in absorbance, Containing Antibody (Composition A) ([1]; potassium thiocyanate 200 mM): 59.5 mABS/min
Change in absorbance, Without antibody (Composition B) ([1]; potassium thiocyanate 200 mM): 61.9 mABS/min
Relative sensitivity ([1]; potassium thiocyanate 200 mM): 129.2%
Percent residual enzyme activity ([1]; potassium thiocyanate 200 mM): 96.1%
Change in absorbance, Containing Antibody (Composition A) ([1]; potassium thiocyanate 300 mM): 66.6 mABS/min
Change in absorbance, Without antibody (Composition B) ([1]; potassium thiocyanate 300 mM): 69.1 mABS/min
Relative sensitivity ([1]; potassium thiocyanate 300 mM): 144.3%
Percent residual enzyme activity ([1]; potassium thiocyanate 300 mM): 96.4%
Change in absorbance, Containing Antibody (Composition A) ([1]; potassium thiocyanate 400 mM): 70.3 mABS/min
Change in absorbance, Without antibody (Composition B) ([1]; potassium thiocyanate 400 mM): 71.7 mABS/min
Relative sensitivity ([1]; potassium thiocyanate 400 mM): 149.7%
Percent residual enzyme activity ([1]; potassium thiocyanate 400 mM): 98.0%
Change in absorbance, Containing Antibody (Composition A) ([1]; potassium thiocyanate 500 mM): 71.3 mABS/min
Change in absorbance, Without antibody (Composition B) ([1]; potassium thiocyanate 500 mM): 70.9 mABS/min
Relative sensitivity ([1]; potassium thiocyanate 500 mM): 148.0%
Percent residual enzyme activity ([1]; potassium thiocyanate 500 mM): 100.6%
Change in absorbance, Containing Antibody (Composition A) ([1]; potassium thiocyanate 600 mM): 70.4 mABS/min
Change in absorbance, Without antibody (Composition B) ([1]; potassium thiocyanate 600 mM): 68.0 mABS/min
Relative sensitivity ([1]; potassium thiocyanate 600 mM): 142.0%
Percent residual enzyme activity ([1]; potassium thiocyanate 600 mM): 103.5%
Change in absorbance, Containing Antibody (Composition A) ([1]; potassium thiocyanate 700 mM): 67.9 mABS/min
Change in absorbance, Without antibody (Composition B) ([1]; potassium thiocyanate 700 mM): 67.2 mABS/min
Relative sensitivity ([1]; potassium thiocyanate 700 mM): 140.3%
Percent residual enzyme activity ([1]; potassium thiocyanate 700 mM): 101.0%
Change in absorbance, Containing Antibody (Composition A) ([1]; potassium thiocyanate 800 mM): 63.7 mABS/min
Change in absorbance, Without antibody (Composition B) ([1]; potassium thiocyanate 800 mM): 62.6 mABS/min
Relative sensitivity ([1]; potassium thiocyanate 800 mM): 130.7%
Percent residual enzyme activity ([1]; potassium thiocyanate 800 mM): 101.8%
Change in absorbance, Containing Antibody (Composition A) ([1]; potassium thiocyanate 900 mM): 61.6 mABS/min
Change in absorbance, Without antibody (Composition B) ([1]; potassium thiocyanate 900 mM): 60.1 mABS/min
Relative sensitivity ([1]; potassium thiocyanate 900 mM): 125.5%
Percent residual enzyme activity ([1]; potassium thiocyanate 900 mM): 102.5%
relative sensitivity of P-type amylase as multiple of the standard sensitivity ([1]; potassium thiocyanate 200 mM, standard = G3CNP at 900 mM): about 1.3
S-type amylase activity value (S-type amylase; Serum 1): 44.8 IU/L
S-type amylase activity value (S-type amylase; Serum 2): 167.7 IU/L
S-type amylase activity value (S-type amylase; Serum 3): 140.7 IU/L
sensitivity (change in absorbance) compared with Comparative Example (S-type amylase; Table 6, serum samples): superior sensitivity
Blank, change in absorbance per minute (S-type amylase; distilled water as sample, compositions F and G): 0.0003 ABS/min

— US6350585B1, “Reagent for assay of amylase isozyme activity” (priority 1998, dated 2002)
